Data on one molecule can be found in patent US11040947B2, “Substituted quinazolines as matrix metalloproteinase-9 hemopexin domain inhibitors” (The Research Foundation for The State University of New York, priority 2017, dated 2021).

The structures appear in SMILES notation.

Test [1] has as its system proMMP9-mediated migration of COS-1 cells. Kind of test: two-dimensional collagen dot migration assay, COS-1 cells overexpressing proMMP-9. To be noted: above 50 μM. In kind it is cell-based.
Experimental: This assay was initially used to test the efficacy of analogs at a single concentration, 50 μM.
Cells were mixed with type I collagen solution with or without compound, dotted onto a 96-well plate, and allowed to migrate for 18 hours. They were then fixed, stained and scored for extent of migration.
Test [2] shares this test system. Kind of test: two-dimensional dot migration assay, COS-1 cells stably expressing proMMP-9. The class given is cell-based. As for the experimental part: (§1) To test whether compound 3c is specific for inhibiting only proMMP9-mediated migration, a two-dimensional dot migration assay was performed using COS-1 cells engineered to stably express vector control pQCXIP, proMMP-2, proMMP-9, or proMMP-14 cDNA vectors. An immunoblot was performed to confirm protein expression and proper localization of each MMP (MMP-2/-9 are secreted while MMP-14 is membrane bound).

The subject of test [3] is proMMP-2-mediated migration of COS-1 cells. Kind of test: two-dimensional dot migration assay, COS-1 cells stably expressing proMMP-2. In kind it is cell-based. As for the experimental part:
as §1

The subject of test [4] is proMMP-14-mediated migration of COS-1 cells. As to the kind of experiment: two-dimensional dot migration assay, COS-1 cells stably expressing proMMP-14. In kind it is cell-based. The protocol: as §1
The target in test [5] is T1, APMA-activated recombinant proMMP-9 (Homo sapiens, UniProt P14780).
T1 construct: made in house
Kind of test: MMP-9 catalytic activity with fluorogenic peptide. In kind it is biochemical. The conditions noted are these: 10 μM fluorogenic peptide, monitored over 2 hours. The protocol:
Recombinant proMMP-9 protein was purified and incubated overnight in a 37° C. water bath in TNC buffer+1 mM APMA to artificially activate the protein.

The target of test [6] is T2, MMP-9 association with CD44 and EGFR (Homo sapiens, UniProt P14780).
T2 construct: expressed in transfected cells; host or cells: HT1080 human fibrosarcoma cells (MMP-9 transfected; CD44 and EGFR endogenous)
Kind of test: co-immunoprecipitation of endogenous CD44 and EGFR with MMP-9 in HT1080 cells. To be noted: 50 μM overnight. In kind it is cell-based.

The test system of test [7] is EGFR^Tyr1068, AKT^Ser473, Erk1/2^Thr202/Tyr204 phosphorylation. Kind of test: phosphorylation of EGFR and downstream targets in HT1080 cells. The class given is cell-based, Human. The conditions noted are these: 50 μM overnight.
The target in test [8] is T3, MMP-9 interaction with α4/β1 integrin (Homo sapiens, UniProt P14780).
T3 construct: expressed in transfected cells; host or cells: HT1080 cells (MMP-9 transfected; integrin endogenous)
Kind of test: co-immunoprecipitation of endogenous integrin with MMP-9 in HT1080 cells. The class given is cell-based. To be noted: 50 μM. The protocol:
(§2) HT1080 cells transiently co-transfected with tagged MMP-9 cDNAs were prepared as described above.

Test [9] deals with Src^Tyr418, FAK^Tyr576/577, PAX^Tyr118 phosphorylation. As to the kind of experiment: phosphorylation of Src and downstream targets in HT1080 cells. The class given is cell-based, Human. To be noted: 50 μM. The protocol:
as §2

Test [10] has as its system MMP-9 at the cell surface of HT1080 cells. Kind of test: MMP-9 cell surface localization, immunofluorescence in HT1080 cells. The class given is cell-based, Human. As for the experimental part: HT1080 cells were fixed in 4% paraformaldehyde then subsequently incubated with anti-MMP-9 in addition to anti-α4 and/or β1 integrin antibodies to monitor relative levels of localization of these proteins at the cell surface. The cells were counterstained with DAPI nuclear dye.

In test [11] the test system is FAK and PAX adhesion junctions in HT1080 cells. Kind of test: focal adhesion complexes, immunofluorescence in HT1080 cells. The class given is cell-based, Human. To be noted: 50 μM overnight.
In test [12] the test system is HT1080 cells. Kind of test: cell adhesion to collagen or fibronectin coated plate. In kind it is cell-based, Human. The conditions noted are these: 37° C. 30 min. As for the experimental part:
A 96-well plate was coated with a thin layer of either collagen or fibronectin (5 μg/ml in PBS) substrate before use. HT1080 cells were then seeded onto wells and incubated at 37° C. for 30 min in the presence of various inhibitors. Wells were washed and cells were fixed in 4% paraformaldehyde and stained with DAPI. Images of each 96-well were microscopically captured and counted for the number of cells still adherent to the coated surface using automated computer software.

Test [13] deals with HT1080 cells. Kind of test: chorioallantoic membrane (CAM) assay, angiogenesis. In kind it is in vivo, chicken embryo. The conditions noted are these: 100 μM stock solution (final estimated 0.5 μM), 4-day incubation, vs DMSO and 1f. As for the experimental part:
A CAM assay was carried out to evaluate angiogenic and invasive potential of HT1080 cells after treatment with 3c. […] After a 4-day incubation, neovascularization was imaged and quantified.

The test system of test [14] is HT1080 cells stably expressing GFP. As to the kind of experiment: chorioallantoic membrane (CAM) assay, invasion. To be noted: 100 μM stock solution (final estimated 0.5 μM), vs DMSO or 1f. In kind it is in vivo, chicken embryo. The protocol:
HT1080 cells stably expressing GFP were mixed with a type I collagen solution (3 mg/mL) and seeded atop the CAM to ensure the cells localized to a specific area. […] The invasion of cancer cells through the epithelium and basement membrane of the upper CAM into connecting tissue was examined by hematoxylin and eosin staining in addition to fluorescence microscopy for GFP^+ cells.

T1 sequence (P14780 107-707 limits assumed): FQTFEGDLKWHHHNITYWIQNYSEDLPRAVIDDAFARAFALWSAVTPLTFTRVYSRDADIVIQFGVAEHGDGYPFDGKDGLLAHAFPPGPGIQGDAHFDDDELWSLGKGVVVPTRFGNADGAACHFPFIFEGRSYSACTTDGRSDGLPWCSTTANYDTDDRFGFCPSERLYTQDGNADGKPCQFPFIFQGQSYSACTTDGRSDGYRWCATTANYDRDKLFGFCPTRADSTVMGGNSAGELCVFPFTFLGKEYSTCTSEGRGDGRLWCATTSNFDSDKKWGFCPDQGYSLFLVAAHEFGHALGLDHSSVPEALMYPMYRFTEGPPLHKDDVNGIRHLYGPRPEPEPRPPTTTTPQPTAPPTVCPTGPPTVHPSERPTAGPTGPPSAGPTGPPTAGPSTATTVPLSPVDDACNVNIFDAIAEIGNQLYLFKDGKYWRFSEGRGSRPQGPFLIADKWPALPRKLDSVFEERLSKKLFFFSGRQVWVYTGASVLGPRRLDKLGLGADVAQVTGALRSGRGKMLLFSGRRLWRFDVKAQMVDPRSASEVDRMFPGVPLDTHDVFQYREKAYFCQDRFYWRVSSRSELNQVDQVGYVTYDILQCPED
T2 sequence (P14780 94-707): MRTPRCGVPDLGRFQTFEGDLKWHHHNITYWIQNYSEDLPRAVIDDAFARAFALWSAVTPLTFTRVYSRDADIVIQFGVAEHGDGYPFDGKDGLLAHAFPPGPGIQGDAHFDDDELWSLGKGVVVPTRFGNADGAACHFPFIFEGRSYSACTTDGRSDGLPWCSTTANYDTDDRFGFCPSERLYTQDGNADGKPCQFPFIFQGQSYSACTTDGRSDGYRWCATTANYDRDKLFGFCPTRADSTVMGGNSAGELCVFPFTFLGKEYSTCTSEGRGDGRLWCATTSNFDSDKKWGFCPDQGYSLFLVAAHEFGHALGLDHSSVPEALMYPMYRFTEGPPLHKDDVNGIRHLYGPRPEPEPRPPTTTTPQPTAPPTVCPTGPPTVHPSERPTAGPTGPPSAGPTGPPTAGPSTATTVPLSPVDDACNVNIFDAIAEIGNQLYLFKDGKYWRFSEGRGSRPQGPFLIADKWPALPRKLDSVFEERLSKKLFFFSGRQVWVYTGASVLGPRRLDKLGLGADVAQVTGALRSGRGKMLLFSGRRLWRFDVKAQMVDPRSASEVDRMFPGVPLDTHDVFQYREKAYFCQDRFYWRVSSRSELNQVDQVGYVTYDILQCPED
T3 sequence (P14780 94-707): as above

Regarding `CCCc1cc(=O)nc(SCC(=O)Nc2ccc(OC(F)F)cc2)[nH]1` [Compound 1a, N-(4-Difluoromethoxyphenyl)-2-(4-oxo-6-propyl-1,4-dihydropyrimidin-2-ylthio)acetamide], in test [1], the “inhibitor effectiveness at concentrations above 50 μM” value was “did not increase inhibitor effectiveness”. The “inhibition of proMMP-9-mediated migration” value in test [2] is “only inhibited proMMP9-mediated migration”. Also, in [3], the “inhibition of proMMP-2-mediated migration” value is “only inhibited proMMP9-mediated migration”. Further, in test [4], the “inhibition of proMMP-14-mediated migration” value is on record as “only inhibited proMMP9-mediated migration”. Besides, in test [5], the “inhibition of MMP-9 catalytic activity” value is “No inhibition of the catalytic activity was observed”. Further, in test [6], the “endogenous CD44 and EGFR co-immunoprecipitation” value was “reduced endogenous CD44 and EGFR co-immunoprecipitation”. The “phosphorylation of EGFR^Tyr1068 and downstream targets AKT^Ser473 and Erk1/2^Thr202/Tyr204” value in test [7] is given as “reduced phosphorylation”. The “endogenous α4β1 integrin co-immunoprecipitation” value in [8] was “reduced endogenous α4β3 integrin co-immunoprecipitation”. Further, the “Src^Tyr418 phosphorylation and phosphorylation of FAK^Tyr576/577 and PAX^Tyr118” value in [9] was “reduced Src^Tyr418 phosphorylation”. Also, in test [10], the “localization of MMP-9 on the cell surface” value is given as “loss of MMP-9 from the cell surface”. Besides, the “formation of FAK and PAX adhesion junctions” value in test [11] is “A decrease in the formation of FAK and PAX adhesion junctions”. Also, the cellular adhesion entry in test [12] is “inhibited cellular adhesion”. The “angiogenic potential of HT1080 cells (neovascularization)” value in [13] is reported as “significantly reduced the angiogenic potential of HT1080 cells”. Moreover, the “invasion of CAM tissue” value in [14] is given as “reduced invasion of CAM tissue”.
